The results in this text go back to ChEMBL document CHEMBL5365474, “Discovery of a First-in-Class CD38 Inhibitor for the Treatment of Mitochondrial Myopathy” (J Med Chem, 2023).

Structures are written as SMILES. Converted amounts (≈) assume the structure as drawn.

The nature of the data set: physchem. As to conditions: PBS, pH 7.4.

As usually defined, the solubility is how much of the substance goes into solution per volume. Regarding `O=C(Nc1cccnc1)c1cc(C(F)(F)F)nc(-n2ccnc2)n1`, the solubility at 2 h is 48 µM (≈ 16 µg/mL).
